The text below walks through data of patent US20260297542A1, “HERBICIDE RESISTANT PLANTS” (SYNGENTA CROP PROTECTION AG, priority 2023, published 2026).

Residue numbers refer to the chain shown, from its start.

Holding throughout (test): E. coli hemG growth inhibition by herbicide, AtPPO1 variant
Holding throughout (type): cell-based
Settings in all cases: read-out: percentage growth inhibition

Assay [1] has as its target T1, AtPPO1 V218K (Arabidopsis thaliana, UniProt P55826, V218K).
T1 construct: expressed in transfected cells; host or cells: E. coli BL21(DE3) hemG (hemG replaced by CmR), pET24a plasmid
T1 sequence (P55826 35-537 V218K): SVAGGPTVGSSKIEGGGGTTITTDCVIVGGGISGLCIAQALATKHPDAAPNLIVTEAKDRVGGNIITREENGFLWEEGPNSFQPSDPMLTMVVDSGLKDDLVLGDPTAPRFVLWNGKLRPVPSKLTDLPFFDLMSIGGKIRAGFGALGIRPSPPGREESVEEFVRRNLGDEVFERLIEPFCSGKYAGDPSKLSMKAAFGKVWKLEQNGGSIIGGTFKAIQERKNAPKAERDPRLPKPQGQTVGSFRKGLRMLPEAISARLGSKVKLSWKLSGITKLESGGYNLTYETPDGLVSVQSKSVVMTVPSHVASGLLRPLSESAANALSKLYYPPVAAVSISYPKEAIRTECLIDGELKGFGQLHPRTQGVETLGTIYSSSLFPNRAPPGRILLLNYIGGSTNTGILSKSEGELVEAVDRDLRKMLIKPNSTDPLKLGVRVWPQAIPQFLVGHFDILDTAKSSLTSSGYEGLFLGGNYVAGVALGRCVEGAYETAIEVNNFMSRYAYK
The procedure, abridged:
(§1)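 Variant plasmids were transformed into hemG-null BL21(DE3) and precultured 24 h with hematin. Washed cells were diluted 1:100 into Terrific broth containing 0.1 mM IPTG and herbicide (6.25 ppm 0 or E; 0.78 ppm B) or DMSO. After 24 h at 37° C, OD600 gave percent inhibition.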

In assay [2] the target is T2, AtPPO1 Q272T (Arabidopsis thaliana, UniProt P55826, Q272T).
T2 construct: expressed in transfected cells; host or cells: E. coli BL21(DE3) hemG (hemG replaced by CmR), pET24a plasmid
T2 sequence (P55826 35-537 Q272T): T1 sequence (P55826 35-537 V218K) with K184V, Q238T
The gist of the method: as §1

Assay [3] addresses T3, AtPPO1 R449K (Arabidopsis thaliana, UniProt P55826, R449K).
T3 construct: expressed in transfected cells; host or cells: E. coli BL21(DE3) hemG, pET24a plasmid
T3 sequence (P55826 35-537 R449K): T1 sequence (P55826 35-537 V218K) with K184V, R415K
The procedure, abridged:
as §1

Assay [4] has as its target T4, AtPPO1 L464Y (Arabidopsis thaliana, UniProt P55826, L464Y).
T4 construct: expressed in transfected cells; host or cells: E. coli BL21(DE3) hemG, pET24a plasmid
T4 sequence (P55826 35-537 L464Y): T1 sequence (P55826 35-537 V218K) with K184V, L430Y
The gist of the method: as §1

In general, inhibition refers to the drop in the measured response relative to a control, in per cent. As for `C#CCN1C(=O)C(F)(F)Oc2cc(F)c(-n3c(=O)n(C)c(=S)n(C)c3=O)cc21` [Herbicide B, trifludimoxazin], the inhibition at 0.78 ppm in assay [1] was found to be 38%; in assay [2], 28%; in assay [3] it was 35%; in assay [4], 0%.
Consider `CCOC(=O)[C@]1(C)CC(c2cc(-n3c(=O)n(C)c(=S)n(C)c3=O)c(F)cc2Cl)=NO1` [Herbicide D, ethyl (5S)-3-[2-chloro-5-(3,5-dimethyl-2,6-dioxo-4-thioxo-1,3,5-triazinan-1-yl)-4-fluoro-phenyl]-5-methyl-4H-isoxazole-5-carboxylate], for which the inhibition at 6.25 ppm in assay [1] was 31%; in assay [2] it was 23%; in assay [3] it was 37%; in assay [4], 12%.
As for `CC(C)N(C)S(=O)(=O)NC(=O)c1cc(-n2c(=O)cc(C(F)(F)F)n(C)c2=O)c(F)cc1Cl` [Herbicide E, saflufenacil], the inhibition at 6.25 ppm was 50% in assay [1], 64% in assay [2], 68% in assay [3] and 5% in assay [4].
